Data from patent US5767142A, “Trisbenzimidazoles useful as topoisomerase I inhibitors” (Rutgers, The State University of New Jersey, priority 1996, dated 1998).
Values after ≈ are worked out from the molar mass of the structure shown. Where two headings read alike, the source gives them in different places.

Columns and labels:
[1] = test system: CPT-K5 cells (camptothecin-resistant variant of RPMI 8402); test: MTT cytotoxicity assay, camptothecin-resistant CPT-K5; assay type: cell-based, human; settings: for IC50: Homo sapiens, CPT-K5, 96 h, read-out: Cytotoxicity IC50, CPT-K5
Description: (§1) The cytotoxicity was determined using the as MTT-microtiter plate tetrazolinium cytotoxicity assay (MTA) following the procedures of F. Denizot et al., J. Immunol. […] The cytotoxicity assay was performed using 96-well microtiter plates. Cells were grown in suspension at 37° C. in 5% CO2 and maintained by regular passage in RPMI medium supplemented with 10% heat inactivated fetal bovine serum, L-glutamine (2 mM), penicillin (100 U/ml), and streptomycin (0.1 mg/ml). For determination of IC50, cells were exposed continuously with varying concentrations of drug concentrations and MTT assays were performed at the end of the fourth day.

[2] = test system: human lymphoblast RPMI 8402 cells; test: MTT cytotoxicity assay, RPMI 8402; assay type: cell-based; settings: for IC50: Homo sapiens, RPMI 8402, 96 h, read-out: Cytotoxicity IC50, RPMI
Description: as §1

[3] = target: T1, calf thymus topoisomerase I (Bos taurus, UniProt A0AAA9TV68); test: Topoisomerase I-mediated DNA cleavage assay (calf thymus topoisomerase I, plasmid YEpG); assay type: biochemical
T1 construct: plasmid YEpG DNA cleavage assay
T1 sequence (A0AAA9TV68 2-769): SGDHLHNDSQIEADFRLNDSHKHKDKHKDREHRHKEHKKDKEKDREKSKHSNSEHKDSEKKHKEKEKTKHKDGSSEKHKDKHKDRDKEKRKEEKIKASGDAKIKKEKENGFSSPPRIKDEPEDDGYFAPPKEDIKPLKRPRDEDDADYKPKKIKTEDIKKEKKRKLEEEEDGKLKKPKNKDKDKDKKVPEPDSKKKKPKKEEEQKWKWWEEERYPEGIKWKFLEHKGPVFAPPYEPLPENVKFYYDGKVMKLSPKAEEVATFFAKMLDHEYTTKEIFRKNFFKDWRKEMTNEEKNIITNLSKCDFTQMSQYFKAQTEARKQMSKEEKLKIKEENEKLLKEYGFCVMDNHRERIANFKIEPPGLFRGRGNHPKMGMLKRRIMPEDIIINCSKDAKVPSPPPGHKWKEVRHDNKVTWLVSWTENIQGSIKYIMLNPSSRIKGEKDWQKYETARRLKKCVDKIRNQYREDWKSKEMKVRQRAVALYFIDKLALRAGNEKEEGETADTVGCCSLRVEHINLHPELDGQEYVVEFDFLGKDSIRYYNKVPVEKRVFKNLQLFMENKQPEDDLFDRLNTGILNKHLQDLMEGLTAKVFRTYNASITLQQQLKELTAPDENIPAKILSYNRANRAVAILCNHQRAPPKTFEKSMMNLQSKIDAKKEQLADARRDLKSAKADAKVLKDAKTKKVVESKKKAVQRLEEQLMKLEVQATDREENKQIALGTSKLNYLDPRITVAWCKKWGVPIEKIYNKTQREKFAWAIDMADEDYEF
Excerpt: DNA topoisomerase I was purified from calf thymus gland as reported previously by B. D. Halligan et al., J. Biol. Chem., 260, 2475 (1985). Plasmid YEpG was also purified by the alkali lysis method followed by phenol deproteination and CsCl/ethidium isopycnic centrifugation as described by T. Mariatis et al., Molecular Cloning, A Laboratory Manual, Cold Spring Harbor Labs, NY (1982) at pages 149-185. The end-labeling of the plasmid was accomplished as previously described by L. F. Liu et al., J. Biol. Chem., 258, 15365 (1983). The cleavage assays were performed as previously reported by A. Y. Chen et al., Cancer Res., 53, 1332 (1993). Human topoisomerase was isolated as a recombinant fusion protein using a T7 expression system.
^b Topoisomerase I cleavage values are reported as REC, Relative
Effective Concentration, i.e. concentrations relative to Hoechst 33342,
whose value is arbitrarily assumed as 1, that are able to produce the sam
cleavage on the plasmid DNA in the presence of calf thymus topoisomerase
I. Cleavage is calculated from the intensity of the strongest Hoechst

mammalian tumor cells = test: Cytotoxicity to tumor cells, general statement; assay type: cell-based; settings: cell line not specified
[4] = test system: human ovarian tumor cell line, A2780; test: Cytotoxicity, ovarian tumor cell line A2780; assay type: cell-based
Description: (§2) The cytotoxicity was determined using the as MTT-microtiter plate tetrazolinium cytotoxicity assay (MTA) following the procedures of F. Denizot et al., J. Immunol. Methods, 89, 271 (1986); J. Carmichael et al., Cancer Res., 47, 936 (1987) and T. J. Mosmann et al., Immunol. Methods, 65, 55 (1983). The human lymphoblast RPMI 8402 and its camptothecin-resistant variant cell line, CPT-K5 were provided by Dr. Toshiwo Andoh (Aichi Cancer Center Research Institute, Nagoya, Japan). See, for example, T. Andoh et al., Adv. Pharmacol., 29B, 93 (1994). The cytotoxicity assay was performed using 96-well microtiter plates. Cells were grown in suspension at 37° C. in 5% CO2 and maintained by regular passage in RPMI medium supplemented with 10% heat inactivated fetal bovine serum, L-glutamine (2 mM), penicillin (100 U/ml), and streptomycin (0.1 mg/ml). For determination of IC50, cells were exposed continuously with varying concentrations of drug concentrations and MTT assays were performed at the end of the fourth day.

[5] = test system: KBV-1 cells (multidrug-resistant variant of KB3-1, overexpress MDR1); test: MTT cytotoxicity assay, multidrug-resistant KBV-1; assay type: cell-based, human; settings: for IC50: Homo sapiens, KB-V1, 96 h, read-out: Cytotoxicity IC50, KBV-1
Description: as §1
(§3) These cells were grown as monolayer cultures at in 5% CO2 and maintained by regular passage in Dulbecco's minimal essential medium supplemented with 10% heat inactivated fetal bovine serum. KBV-1 cells were similarly maintained except they were grown in the presence of 1 μg/ml vinblastine.

[6] = test system: CPT-2000, a variant of A2780; test: Cytotoxicity, camptothecin-resistant CPT-2000; assay type: cell-based; settings: Homo sapiens
Description: as §2

[7] = test system: human MDR1 (P-glycoprotein); test: Substrate of human MDR1 (P-glycoprotein), from cytotoxicity in KB 3-1 and KB V-1 cells; assay type: cell-based; settings: concluded from KB 3-1 / KB V-1 IC50 values
Description: The drug sensitive human epidermoid carcinoma KB3-1 cell line (S. Aliyama et al., Somatic Cell Mol. Genet, 11, 117 (1985)) and its vinblastine-selected multidrug-resistant variant KBV-1 cells (D. W. Shen et al., Science, 32, 643 (1986)) were provided by Dr. Michael Gottesmann (National Cancer Institute, Bethesda, ML). These cells were grown as monolayer cultures at in 5% CO2 and maintained by regular passage in Dulbecco's minimal essential medium supplemented with 10% heat inactivated fetal bovine serum. KBV-1 cells were similarly maintained except they were grown in the presence of 1 μg/ml vinblastine.
The cytotoxic activity of Hoechst 33342 and 13 was also evaluated against KB 3-1 and KB V-1 cells. The primary difference between these cell lines is in the degree to which human MDR1 (P-glycoprotein) is expressed. […] Pharmacol., 245, 29B (1994).

[8] = test system: human epidermoid carcinoma KB3-1 cell line; test: MTT cytotoxicity assay, KB3-1; assay type: cell-based; settings: KB 3-1, 96 h, 4 days continuous drug exposure
Description: as §1, §3

fungi = test: Antifungal activity
[9] = test system: CPT-K5 cells (camptothecin-resistant variant of RPMI 8402); settings: as reported by A. Y. Chen et al., Cancer Res., 53, 1332 (1993); cited from earlier work
[10] = 4 days continuous drug exposure

With c1ccc2[nH]c(-c3ccc4[nH]c(-c5ccc6[nH]cnc6c5)nc4c3)nc2c1 [Compound 10, 2-[2'-(Benzimidazol-5"-yl)benzimidazol-5'-yl]benzimidazole] the IC50 [1] was 28 µM, the “Cytotoxicity towards RPMI 8402 (in words)” value [2] was “failed to exhibit significant cytotoxicity” and the IC50 [2] was 14 µM.
With N#Cc1ccc2[nH]c(-c3ccc4[nH]c(-c5ccc6[nH]cnc6c5)nc4c3)nc2c1 [Compound 11, 5-Cyano-2-[2'-(benzimidazol-5"-yl)benzimidazol-5'-yl]benzimidazole] the IC50 [1, 10] was over 25 µM, the “Cytotoxicity towards RPMI 8402 (in words)” value [2] was “failed to exhibit significant cytotoxicity” and the IC50 [2, 10] was over 25 µM.
In the case of CCCc1ccc2nc(-c3ccc4nc(-c5ccc6nc[nH]c6c5)[nH]c4c3)[nH]c2c1 [Compound 12, 5-Propyl-2-[2'-(benzimidazol-5"-yl)benzimidazol-5'-yl]benzimidazole], the “Potency as topoisomerase I inhibitor (in words)” value [3] is reported as “much less active than either 10, 11, or 13 as an inhibitor of topoisomerase I”, the “Cytotoxicity to tumor cells (in words)” value (mammalian tumor cells) is reported as “weak cytotoxicity” and the IC50 [1, 10] is reported as 20 µM. The IC50 [2, 10] was 7.6 µM.
With c1ccc(-c2ccc3nc(-c4ccc5nc(-c6ccc7nc[nH]c7c6)[nH]c5c4)[nH]c3c2)cc1 [Compound 13, 5-Phenyl-2-[2'(benzimidazol-5"-yl)benzimidazol-5'-yl]benzimidazole] the “Potency as topoisomerase I inhibitor (in words)” value [3] was “approximately one-half as potent as Hoechst 33342 as a topoisomerase I inhibitor”, the IC50 [4] was 0.015 mg/L (≈ 0.0352 µM) and the “Cytotoxicity against CPT-K5 cells (in words)” value [1] was “effective against camptothecin-resistant CPT-K5 cells”. For the same compound, the “Relative resistance (ratio of IC50 values of resistant versus drug sensitive cell line)” value ([1]; CPT-K5 versus RPMI 8402, 5760 min) was “approximately 30 fold”, the IC50 [1] was 0.58 µM and the IC50 [5] was 0.35 µM. For the same compound, the “Difference of cytotoxicity between KB 3-1 and KB V-1 cells (in words)” value ([5]; KB 3-1 versus KB V-1) was “little difference between the IC50 values”, the “Cytotoxicity towards RPMI 8402 (in words)” value [2] was “significant cytotoxicity” and the IC50 [2, 10] was 0.09 µM. The IC50 [6] was 0.03 mg/L (≈ 0.0703 µM) and the “Substrate for human MDR1 (in words)” value [7] was “appears not to be a substrate for human MDR1”.
With c1ccc(-c2ccc3nc(-c4ccc5nc(-c6ccc7nc[nH]c7c6)[nH]c5c4)[nH]c3c2)nc1 [Compound 14, 5-(2-Pyridyl)-2-[2'-(benzimidazol-5"-yl)benzimidazol-5'-yl]benzimidazole] the IC50 [8] was 0.05 µM, the “Antifungal activity (in words)” value (fungi) was “exhibits antifungal activity” and the IC50 [1] was 5.8 µM. The IC50 [5, 10] was 0.09 µM and the IC50 [2, 10] was 0.16 µM.
For c1cncc(-c2ccc3nc(-c4ccc5nc(-c6ccc7nc[nH]c7c6)[nH]c5c4)[nH]c3c2)c1 [Compound 15, 5-(3-Pyridyl)-2-[2'-(benzimidazol-5"-yl)benzimidazol-5'-yl]benzimidazole], the IC50 [8] was 0.02 µM, the “Potency as topoisomerase I inhibitor (in words)” value [3] was “somewhat more active than the 2-pyridyl derivative, 14, as topoisomerase I inhibitors” and the “Cytotoxicity to tumor cells (in words)” value (mammalian tumor cells) was “somewhat more active than the 2-pyridyl derivative, 14, as topoisomerase I inhibitors as well as cytotoxic agents”. It also gave an IC50 [1] of 2.5 µM, an IC50 [5, 10] of 0.02 µM and an IC50 [2, 10] of 0.035 µM.
With c1cc(-c2ccc3nc(-c4ccc5nc(-c6ccc7nc[nH]c7c6)[nH]c5c4)[nH]c3c2)ccn1 [Compound 16, 5-(4-Pyridyl)-2-[2'-(benzimidazol-5"-yl)benzimidazol-5'-yl]benzimidazole] the IC50 [8] was 0.02 µM, the “Potency as topoisomerase I inhibitor (in words)” value [3] was “somewhat more active than the 2-pyridyl derivative, 14, as topoisomerase I inhibitors” and the “Cytotoxicity to tumor cells (in words)” value (mammalian tumor cells) was “somewhat more active than the 2-pyridyl derivative, 14, as topoisomerase I inhibitors as well as cytotoxic agents”. The IC50 [1] was 2.5 µM, the IC50 [5, 10] was 0.01 µM and the IC50 [2, 10] was 0.035 µM.
N#Cc1ccc2nc(-c3ccc4nc[nH]c4c3)[nH]c2c1 [Compound 19, 5-Cyano-2-(benzimidazol-5'-yl)benzimidazole] gave an IC50 [2, 10] of over 25 µM.
For Brc1ccc2nc(-c3ccc4nc(-c5ccc6nc[nH]c6c5)[nH]c4c3)[nH]c2c1 [JSKIV-37, 5-Bromo-2-[2'-(benzimidazol-5"-yl)benzimidazol-5'-yl]-benzimidazole], the IC50 [1] was 1.4 µM.
For Clc1ccc(-c2ccc3nc(-c4ccc5nc(-c6ccc7nc[nH]c7c6)[nH]c5c4)[nH]c3c2)cc1 [JSKIV-47, 5-(p-Chlorophenyl)-2-[2'-(benzimidazol-5"-yl)benzimidazol-5'-yl]-benzimidazole], the IC50 [1, 10] was 0.2 µM and the IC50 [2, 10] was 0.09 µM.
Work on Clc1ccc2nc(-c3ccc4nc(-c5ccc6nc[nH]c6c5)[nH]c4c3)[nH]c2c1 [JSKIV-68, 5-Chloro-2-[2'-(benzimidazol-5"-yl)benzimidazol-5'-yl]-benzimidazole] yielded an IC50 [1] of 0.65 µM and an IC50 [2, 10] of 1.04 µM.
For CC[C@@]1(O)C(=O)OCc2c1cc1n(c2=O)Cc2cc3ccccc3nc2-1 [camptothecin], the “Relative resistance of camptothecin (ratio of IC50 values of resistant versus drug sensitive cell line)” value [9] is listed as 2,500 fold.
